Laboratory results as given in ChEMBL document CHEMBL1201862, “PubChem BioAssay data set” (2004).
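Each compound was tested at five concentrations against cells in 96-well plates for 48 hours. The concentration for 50% growth inhibition is given as GI50.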 Active and inactive are the calls of the source. Rule as the data show it: active = GI50 up to about 1.1 µM and inactive = higher.

How the values were obtained:
Experiment in all cases: NCI tumour cell line growth inhibition, 48 h
786-0 = test system: 786-0
A549 = test system: A549
CCRF-CEM = test system: CCRF-CEM
DLD-1 = test system: DLD-1
EKVX = test system: EKVX
HCC 2998 = test system: HCC 2998
HL-60 = test system: HL-60
IGROV-1 = test system: IGROV-1
KM-20L2 = test system: KM-20L2
KM12 = test system: KM12
LXFL 529 = test system: LXFL 529
NCI-H226 = test system: NCI-H226
SF-295 = test system: SF-295
SK-MEL-28 = test system: SK-MEL-28
SNB-19 = test system: SNB-19
SNB-78 = test system: SNB-78
U-251 = test system: U-251
MCF7 = test system: MCF7
NCI/ADR-RES = test system: NCI/ADR-RES

Measured: GI50

CCc1ccccc1NC(=O)C1=C(C)NC(C)=C(C(=O)Nc2ccccc2CC)C1c1cccc([N+](=O)[O-])c1
inactive: 786-0 43 µM | A549 21.5 µM | CCRF-CEM 12.1 µM | DLD-1 19.9 µM | EKVX 34 µM | HCC 2998 11.7 µM | HL-60 23.2 µM | IGROV-1 21.8 µM | KM-20L2 31 µM | KM12 32.8 µM | LXFL 529 26.2 µM | NCI-H226 29.8 µM | SF-295 47.4 µM | SK-MEL-28 40.9 µM | SNB-19 59.4 µM | SNB-78 43.5 µM | U-251 39.4 µM

CC1=NN(c2ccccc2)C(=O)C1C(=O)C(=O)Nc1ccc(C)cc1C (configuration not stated)
inactive: 786-0 > 100 µM | A549 > 100 µM | CCRF-CEM > 100 µM | DLD-1 > 100 µM | EKVX > 100 µM | HCC 2998 > 100 µM | HL-60 > 100 µM | IGROV-1 > 100 µM | KM-20L2 > 100 µM | KM12 > 100 µM | LXFL 529 > 100 µM | MCF7 > 100 µM | NCI-H226 > 100 µM | NCI/ADR-RES > 100 µM | SF-295 > 100 µM | SK-MEL-28 > 100 µM | SNB-19 > 100 µM | SNB-78 > 100 µM | U-251 > 100 µM

CC(=O)n1c(=O)c2cc3c(=O)n(-c4cccc(C#N)c4)c(=O)c3cc2c1=O
inactive: 786-0 90.4 µM | A549 > 100 µM | CCRF-CEM > 100 µM | DLD-1 > 100 µM | EKVX > 100 µM | HCC 2998 > 100 µM | HL-60 > 100 µM | IGROV-1 > 100 µM | KM-20L2 > 100 µM | KM12 > 100 µM | LXFL 529 > 100 µM | NCI-H226 > 100 µM | SF-295 60.7 µM | SK-MEL-28 > 100 µM | SNB-19 67 µM | SNB-78 60.3 µM | U-251 24.2 µM

Clc1ccc(-c2nnc(-c3nn(-c4ccccc4)c4nc5ccccc5nc34)o2)cc1
inactive: 786-0 > 100 µM | A549 > 100 µM | CCRF-CEM 28.2 µM | DLD-1 18.9 µM | EKVX > 100 µM | HCC 2998 > 100 µM | HL-60 22.5 µM | IGROV-1 65.3 µM | KM-20L2 > 100 µM | KM12 > 100 µM | LXFL 529 27.2 µM | NCI-H226 76 µM | SF-295 > 100 µM | SK-MEL-28 > 100 µM | SNB-19 > 100 µM | SNB-78 > 100 µM | U-251 84.7 µM

COc1ccc(C2ON(c3ccccn3)CC=C2C)cc1 (configuration not stated)
inactive: 786-0 > 100 µM | A549 > 100 µM | CCRF-CEM > 100 µM | DLD-1 > 100 µM | EKVX > 100 µM | HCC 2998 > 100 µM | HL-60 > 100 µM | IGROV-1 > 100 µM | KM-20L2 > 100 µM | KM12 > 100 µM | LXFL 529 > 100 µM | NCI-H226 > 100 µM | SF-295 > 100 µM | SK-MEL-28 > 100 µM | SNB-19 > 100 µM | SNB-78 > 100 µM | U-251 > 100 µM
